The values below come from patent publication US11981695B2, “Linoleic acid derivatives, pharmaceutical composition or food composition comprising said linoleic acid derivatives, and their uses” (UNIVERSITÉ DE BOURGOGNE, priority 2018, dated 2024).

Series [1] relates to mouse taste bud cells. In words: Ca2+ signaling (Fura-2/AM, F340/F380) in mouse taste bud cells. The series is classed as cell-based. The settings on record: for EC50: 0 to 200 μM, Δ ratio F340/F380, n=6, read-out: EC50 of dose-dependent increases in [Ca2+]i. As to the method: Briefly, lingual epithelium was separated by enzymatic dissociation which contained the following: elastase and dispase mixture, 2 mg/ml each, in Tyrode's buffer (120 mM NaCl; 5 mM KCl; 10 mM HEPES ((4-(2-hydroxyethyl)-1-piperazineethanesulfonic acid); 1 mM CaCl2; 1 mM MgCl2; 10 mM glucose; 10 mM Na pyruvate, pH 7.4). The taste bud cells were isolated by incubating lingual epithelium in RPMI 1640 medium containing 2 mM EDTA, 1.2 mg/ml elastase, 0.6 mg/ml collagenase (type 1), and 0.6 mg/ml trypsin inhibitor at 37° C. for 10 minutes, followed by centrifugation (600 g, 10 minutes). The cell populations, after separation, were suspended in fresh RPMI 1640 medium containing 10% fetal calf serum, 200 U/ml penicillin, and 0.2 mg/ml streptomycin, seeded onto a Poly-D-Lysine-coated dishes, and cultured for 24 hours. At the end of this period, the cells were used for the experiments or stained with trypan blue to assess their viability.
(§1) The mouse taste bud cells were seeded in 24-well plates (with glass bottom), containing poly-D-lysine for better adhesion to the surface. After 24 h, taste cells were incubated for 45 minutes with a fluorescent probe, Fura-2/AM (1 μM) in calcium buffer (110 mM NaCl, 5.4 mM, KCl, 25 mM, NaHCO3, 0.8 mM, MgCl2, 0.4 mM, KH2PO4, 20 mM, Hepes-Na, 0.33 mM, NaHPO4, 1.2 mM, CaCl2, pH 7.4). Then, the cells are washed with phosphate buffer saline (PBS) and taken up in calcium buffer.
(§2) The changes in intracellular Ca^2+ (F340/F380) were monitored under a Nikon microscope (TiU) by using an S Fluor 40× oil immersion objective.
(§3) Especially, the increases in [Ca^2+ ]i were measured as follows: the mice taste bud cells were cultured on Willico-Dish wells with a glass bottom and loaded with a fluorescent probe, Fura-2/AM. The changes in intracellular Ca^2+ (F340/F380) were monitored under the Nikon microscope (TiU) by using S-fluor 40× oil immersion objective. The planes were taken at Z intervals of 0.3 μm, and NIS-Elements software was used to deconvolve the images. The microscope was equipped with EM-CCD (Lucas) camera for real time recording of 16-bit digital images. The dual excitation fluorescence imaging system was used for studies of individual cells. The changes in intracellular Ca^2+ were expressed as ΔRatio, which was calculated as the difference between the peak F340/F380 ratio. The data were summarized from the large number of individual cells (20-40 cells in a single run, with 3-9 identical experiments done in at least three cell preparations). The results were analyzed with the NIS-elements software, the variation in [Ca^2+]i is expressed as Δ ratio (F340/F380 which was calculated with the difference of spectra at two wavelengths, i.e., 340 nm and 380 nm.

In series [2] the test system is mice (C57Bl/6 black). In words: Two-bottle preference test. In kind it is in vivo, mouse. To be noted: for preference versus control solution (xanthan gum) / effect on palatability of a sucrose-containing solution / preferred (optimal) concentration in two-bottle preference test: 12 h; for preference versus control solution (xanthan gum): 0.3% xanthan gum, test compound 10 to 200 μM or linoleic acid 0.2% (v/v); for ratio of LA preferred concentration to that of test compound: LA preferred at 7.13 mM or 0.2%; for effect on palatability of a sucrose-containing solution: sucrose versus sucrose plus test compound 50 μM; for preferred (optimal) concentration in two-bottle preference test: versus xanthan gum. As to the method: Eight weeks old, male mice (C57Bl/6 black) were purchased from the Janvier Elevage (Le Mans) and used for these experiments.
The mice are placed individually in cages in a controlled environment (humidity and constant temperature) and have free access to a standard diet. 6 hours before the tests, the mice are deprived of water.
During the behavioral experiments, the mice were offered two bottles simultaneously for 12 hours (night period).
The mice are subjected to a choice between the “control” solution and the experimental solution.
Experiment 1 (FIG. 5, FIG. 6A, FIG. 7) • control solutions contain 0.3% xanthan gum, w/v, (Sigma Life Science, USA) in water to reproduce lipid texture and minimize bias due to differences in appearance between the two bottles; • the experimental solution contains, in addition to xanthan gum, 0.3% (w/v), either the “test compound” according to the invention at a concentration varying from 10 to 200 μM (NKS-3, FIG. 6A or NKS-5, FIG. 7) or linoleic acid at 0.2% (v/v) (control test, FIG. 5). To avoid the preference for one side, the position of each bottle is changed during each test.
Experiment 2 (FIG. 6B and FIG. 8): gustatory properties • control solutions contain 2% of sucrose (w/v); • the experimental solution contains, in addition to sucrose (2% w/v), the “test compound” according to the invention (NKS-3, FIG. 6B or NKS-5, FIG. 8) at a concentration of 50 μM.
To estimate the consumption of control and experimental solutions, the bottles are weighed before and after each experiment. The mice are allowed to take rest for 48 hours between each experiment.

Series [3] deals with T1, CD36 (Mus musculus, UniProt Q08857).
T1 construct: freshly isolated and primary cultured mice type II taste bud cells (expressing GPR120 and CD36) are used; endogenous in cells; host or cells: primary mouse taste bud cells from fungiform papillae
In words: Ca2+ signaling in mouse taste bud cells in presence or absence of CD36 inhibitor SSO. In kind it is cell-based. To be noted: for action of CD36 inhibitor SSO on the increase in [Ca2+]i: 20 μM SSO, mouse taste bud cells; for CD36 agonist character: judged from suppression by SSO. As to the method: as §1, §2, §3
CD36: in order to assess if the linoleic acid derivatives according to the invention exert their actions via CD36, sulfo-N-succinimidyl oleate (SSO) was used. SSO is a CD36 inhibitor/blocker/antagonist.
Experiments were performed in the presence or absence of SSO with respect to calcium signaling to verify whether our analogs act well via this lipid receptor. Especially, for this assay, NKS-3, NKS-5 and linoleic acid (control) were tested.

For series [4], the system named is obese C57BL/6J mice. In words: Blood biochemical parameters in diet-induced obese mice (ELISA, automatic analyzer). In kind it is in vivo, mouse. The settings on record: obese animals. The protocol:
(§4) C57BL/6J male mice, aged between 6 to 10 weeks (16-20 g), were obtained from Janvier Labs (France). They were housed individually in a controlled environment with a 12 h light/dark cycle with food (SAFE, France) and water ad libitum. The palm oil (Huilerie Vigean, France) was the main fat component in high-fat diets. The high-fat diet was prepared weekly and stored at 4° C. until further use. The study was conducted as per Declaration of Helsinki and European ethical guidelines for the care and use of animals for experimentation. All the experimental protocols (protocol number: 16158) were approved by the Regional Ethical Committee of the University of Burgundy (Dijon, France).
(§5) The mice were grouped at random (n=10/group) and fed with either of the following diets: standard diet (STD) or high-fat diet (HFD). The body weight, food, and water intake were measured, weekly.
(§6) After 10 weeks of feeding the diets, obese animals were divided into two groups: one groups continued to be fed on the same HFD; however, another group was fed on the same diet and received either NKS-3 or NKS-5) until 28th of weeks of experimentation. At the end, the animals were sacrificed, under a fasting condition, and used for different analysis in blood and different tissues.
The rat/mouse insulin ELISA kit was obtained from EMD Millipore (USA). ELISA kits for CCK, PYY and GLP-1 were purchased from Cloud-Clone Corp. (USA). The ALAT (Alanine Amino Transferase) was determined by an automatic analyzer (Gilford Model 2000 system, a Beckman System T.R).

Series [5] deals with C57BL/6J mice. Kind of series: Liver histology in normal diet or HFD fed mice. The settings on record: for liver steatosis in liver sections of obese mice: HFD. In kind it is in vivo, mouse. The protocol:
as §4, §5, §6
The liver of the mice at the time of sacrifice were fixed in formaldehyde and then dehydrated by passaging into ethanoic media. The liver tissues were embedded into the paraffin and 5μ thick section were cut by the microtome as per standard procedures. The slides, containing tissues, were stained by hematoxylin and eosin dyes as per standard methods. The stained slides were observed under Zeiss light microscope at 10× or 20× magnifications.

The test system of series [6] is obese C57BL/6J mice. In words: Diet-induced obesity, body weight. In kind it is in vivo, mouse. To be noted: for body weight in obese mice: HFD, analogues in feeder bottles from 10th to 28th week, NKS-5 75 μM, NKS-3 50 μM; for body weight of control animals: normal diet. As to the method: as §4, §5, §6
In order to elucidate the beneficial effects and especially during obesity, experiments were conducted on obese C57BL/6J mice. […] In order to test the curative/interventional effects on obesity, the animals were divided into two groups: one group that consume only the high-fat diet (HFD) and the other consuming the same diet and also receiving NKS-3 or NKS-5 in adlibitum baby bottles/feeders. From the 10th week of the diet, lipid analogues were introduced into the bottles at concentrations that corresponded to their preference in the double choice test (NKS-5 at 75 μM; NKS-3 at 50 μM). […] In addition, the decrease in obesity was maintained until the 28th week of feeding a HFD (FIGS. 13A and 13B).

The target of series [7] is T2, GPR120 (Mus musculus, UniProt Q7TMA4).
T2 construct: freshly isolated and primary cultured mice type II taste bud cells (expressing GPR120 and CD36) are used; endogenous in cells; host or cells: primary mouse taste bud cells from fungiform papillae
T2 sequence (Q7TMA4 1-361): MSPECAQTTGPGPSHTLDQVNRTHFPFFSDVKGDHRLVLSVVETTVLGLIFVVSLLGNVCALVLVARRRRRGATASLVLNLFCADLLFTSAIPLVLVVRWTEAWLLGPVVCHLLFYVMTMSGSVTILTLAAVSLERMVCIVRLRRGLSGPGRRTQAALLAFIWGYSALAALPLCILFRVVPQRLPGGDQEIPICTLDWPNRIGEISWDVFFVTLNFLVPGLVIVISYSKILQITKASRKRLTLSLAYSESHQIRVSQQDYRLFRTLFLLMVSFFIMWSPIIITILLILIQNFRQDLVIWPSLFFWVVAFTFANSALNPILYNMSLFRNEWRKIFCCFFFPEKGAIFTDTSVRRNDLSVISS
Kind of series: Ca2+ signaling in mouse taste bud cells in presence or absence of GPR120 antagonist AH7614. The series is classed as cell-based. The settings on record: AH7614 20 μM, NKS-5 50 μM. As to the method: as §1, §2
as §3, with “The planes were taken at Z intervals of 0.3 μm, and NIS-Elements software was used to deconvolve the images. The microscope was equipped with EM-CCD (Lucas) camera for real time recording of 16-bit digital images.” left out, “The data were summarized from the large number of individual cells (20-40 cells in a single run, with 3-9 identical experiments done in at least three cell preparations).” left out, “nm. […]” for “nm.”

Entries after “also recorded” stand apart in the source; their conditions may differ.

T1 sequence (Q08857 whole entry): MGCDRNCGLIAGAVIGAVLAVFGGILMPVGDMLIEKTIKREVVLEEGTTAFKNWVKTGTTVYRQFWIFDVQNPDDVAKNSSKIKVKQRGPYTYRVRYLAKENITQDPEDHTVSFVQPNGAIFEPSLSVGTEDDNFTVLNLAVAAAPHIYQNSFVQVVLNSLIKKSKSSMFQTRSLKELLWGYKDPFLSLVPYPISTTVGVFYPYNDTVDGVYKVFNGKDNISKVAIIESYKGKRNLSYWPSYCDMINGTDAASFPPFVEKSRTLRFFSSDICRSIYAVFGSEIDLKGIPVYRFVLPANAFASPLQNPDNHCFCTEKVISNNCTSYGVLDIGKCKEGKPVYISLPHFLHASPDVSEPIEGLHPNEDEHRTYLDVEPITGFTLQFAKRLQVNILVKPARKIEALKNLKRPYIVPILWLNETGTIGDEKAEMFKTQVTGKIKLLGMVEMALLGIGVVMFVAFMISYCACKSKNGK

As for `CCCCC/C=C\C/C=C\CCCCCCCC(=O)O` [Linoleic acid, linoleic acid], the “increase in [Ca2+]i” value in series [1] was “huge increase”. For the same compound, the “preference versus control solution (xanthan gum)” value in series [2] (mice) was “strong preference”. In addition, in series [2] (mice, 7.13 mM or 0.2%), the “concentration preferred in two-bottle preference test” value came out at 7.13 mM. Also, the “action of CD36 inhibitor SSO on the increase in [Ca2+]i” value in series [3] (listed as LA) is “completely blocked; also recorded: suppressed”.
With `CCCCC/C=C\C/C=C\CCCCCCCCP(=O)(OCC)OCC` [NKS-3, diethyl (9Z,12Z)-octadeca-9,12-dien-1-ylphosphonate], in series [1], the “increase in [Ca2+]i” value is listed as “very rapid” and the EC50 stood at 25 ± 0.01 µM. For the same compound, the “ratio of LA preferred concentration to that of test compound” value in series [2] came to 140 times. Further, in series [2] (mice), the “preference versus control solution (xanthan gum)” value is listed as “spontaneous preference”, the “effect on palatability of a sucrose-containing solution” value was “failed to enhance the palatability” and the “preferred (optimal) concentration in two-bottle preference test” value was determined as 50 µM. In series [3], the “action of CD36 inhibitor SSO on the increase in [Ca2+]i” value is given as “completely blocked; also recorded: completely suppressed” and the CD36 agonist character result was “complete CD36 agonist”. In series [4], the “blood concentration of ALAT” value was “decreased”, the “circulating concentrations of IL-6” value was “decrease” and the insulin concentrations result is reported as “decreases”. Also, in series [5], the “liver steatosis in liver sections of obese mice” value is reported as “curative effects” and the “liver histology, normal diet fed mice” value was “did not exert any effect”. Further, in series [6], the “body weight in obese mice” value was “significant decrease in body weight” and the “body weight of control animals” value is recorded as “no effect”.
Take `CCCCC/C=C\C/C=C\CCCCCCCC(=O)OCC1(C)COC1` [NKS-5, (9Z,12Z)-(3-methyloxetan-3-yl)methyl octadeca-9,12-dienoate]: in series [1], the “increase in [Ca2+]i” value is reported as “very rapid” and the EC50 worked out at 30 ± 0.01 µM. Besides, the “ratio of LA preferred concentration to that of test compound” value in series [2] is 93 times. In addition, in series [2] (mice), the “preference versus control solution (xanthan gum)” value is “spontaneous preference”, the “effect on palatability of a sucrose-containing solution” value is reported as “increases the palatability” and the “preferred (optimal) concentration in two-bottle preference test” value came to 75 µM. Moreover, in series [3], the “action of CD36 inhibitor SSO on the increase in [Ca2+]i” value was “partially inhibited; also recorded: curtailed, but not completely suppressed” and the CD36 agonist character entry is “partial agonist”. In addition, in series [4], the “blood concentration of ALAT” value is given as “decreased”, the “circulating concentrations of IL-6” value is “decrease” and the insulin concentrations result is recorded as “decreases”. In series [5], the “liver steatosis in liver sections of obese mice” value is “curative effects” and the “liver histology, normal diet fed mice” value is “did not exert any effect”. In series [7], the “effect of GPR120 inhibitor AH7614 on the increase in [Ca2+]i” value was “significantly curtailed, but not suppressed”. For the same compound, in series [6], the “body weight in obese mice” value was “significant decrease in body weight” and the “body weight of control animals” value is given as “no effect”.
